As usually defined, the inhibition is the relative decrease from the control value, in per cent. Broadly, the IC50 is the concentration at which inhibition is half-maximal.

The values that follow come from ChEMBL document CHEMBL3632526, “Novel, potent, selective and cellular active ABC type PTP1B inhibitors containing (methanesulfonyl-phenyl-amino)-acetic acid methyl ester phosphotyrosine mimetic” (Bioorg Med Chem, 2015).

The structures appear in SMILES notation. Calls of active or inactive are those of the source. The rule behind the calls is not given here.

In assay [1] the target is T1, Tyrosine-protein phosphatase non-receptor type 1 (Homo sapiens) (UniProt P18031).
T1 sequence (whole entry): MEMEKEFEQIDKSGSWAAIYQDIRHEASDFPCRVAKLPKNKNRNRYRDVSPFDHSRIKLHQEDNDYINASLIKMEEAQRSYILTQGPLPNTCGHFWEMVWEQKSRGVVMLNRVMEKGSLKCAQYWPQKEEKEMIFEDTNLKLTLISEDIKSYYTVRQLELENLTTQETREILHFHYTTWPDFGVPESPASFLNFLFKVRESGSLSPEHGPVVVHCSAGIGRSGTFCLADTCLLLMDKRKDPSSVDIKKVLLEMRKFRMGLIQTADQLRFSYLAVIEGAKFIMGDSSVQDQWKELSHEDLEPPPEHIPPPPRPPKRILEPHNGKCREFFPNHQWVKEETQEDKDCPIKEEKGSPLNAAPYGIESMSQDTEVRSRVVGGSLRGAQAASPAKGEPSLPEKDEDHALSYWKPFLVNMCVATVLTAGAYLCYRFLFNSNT
As to the kind of experiment: Inhibition of recombinant PTP1B (unknown origin) assessed as hydrolysis of pNPP to pNP at 25 uM after 30 mins.

The target in assay [2] is T2, Tyrosine-protein phosphatase non-receptor type 1 (Homo sapiens, UniProt P18031).
T2 sequence (P18031 whole entry): T1 sequence (whole entry)
The assay can be described thus: Inhibition of recombinant PTP1B (unknown origin) assessed as hydrolysis of pNPP to pNP after 30 mins.

Assay [3] concerns the target T3, Tyrosine-protein phosphatase non-receptor type 2 (Homo sapiens) (UniProt P17706).
T3 sequence (whole entry): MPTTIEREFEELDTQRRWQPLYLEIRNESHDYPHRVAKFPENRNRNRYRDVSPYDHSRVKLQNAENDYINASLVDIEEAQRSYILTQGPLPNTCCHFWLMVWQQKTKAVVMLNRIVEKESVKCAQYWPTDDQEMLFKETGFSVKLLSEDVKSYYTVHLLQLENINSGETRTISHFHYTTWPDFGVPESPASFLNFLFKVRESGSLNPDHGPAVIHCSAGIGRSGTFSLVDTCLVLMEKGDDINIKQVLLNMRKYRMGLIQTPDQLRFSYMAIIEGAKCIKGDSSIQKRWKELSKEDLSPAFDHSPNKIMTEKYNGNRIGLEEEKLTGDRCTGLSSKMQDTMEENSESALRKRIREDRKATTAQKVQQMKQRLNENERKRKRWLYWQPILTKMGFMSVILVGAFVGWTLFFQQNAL
As to the kind of experiment: Inhibition of TCPTP (unknown origin) assessed as hydrolysis of pNPP to pNP at 25 uM after 30 mins.

Assay [4] addresses T4, Tyrosine-protein phosphatase non-receptor type 6 (Homo sapiens, UniProt P29350). The assay can be described thus: Inhibition of SHP1 (unknown origin) assessed as hydrolysis of pNPP to pNP at 25 uM after 30 mins.
For assay [5], the target named is T5, Tyrosine-protein phosphatase non-receptor type 11 (Homo sapiens) (UniProt Q06124).
T5 sequence (whole entry): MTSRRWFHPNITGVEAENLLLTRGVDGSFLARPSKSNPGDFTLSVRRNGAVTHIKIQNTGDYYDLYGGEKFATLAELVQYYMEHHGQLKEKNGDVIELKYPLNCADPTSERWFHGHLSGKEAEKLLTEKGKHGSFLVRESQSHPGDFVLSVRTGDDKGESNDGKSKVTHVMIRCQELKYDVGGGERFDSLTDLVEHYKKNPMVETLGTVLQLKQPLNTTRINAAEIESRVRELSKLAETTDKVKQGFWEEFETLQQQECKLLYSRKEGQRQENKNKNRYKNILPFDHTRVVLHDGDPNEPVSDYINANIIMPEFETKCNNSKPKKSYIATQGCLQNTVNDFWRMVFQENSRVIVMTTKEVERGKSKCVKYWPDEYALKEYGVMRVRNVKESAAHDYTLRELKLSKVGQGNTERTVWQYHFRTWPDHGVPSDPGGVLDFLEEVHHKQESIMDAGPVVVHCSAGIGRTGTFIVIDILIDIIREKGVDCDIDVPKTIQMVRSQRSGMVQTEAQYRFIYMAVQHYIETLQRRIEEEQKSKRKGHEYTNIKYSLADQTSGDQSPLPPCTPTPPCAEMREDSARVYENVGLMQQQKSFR
As to the kind of experiment: Inhibition of SHP2 (unknown origin) assessed as hydrolysis of pNPP to pNP at 25 uM after 30 mins.

Assay [6] deals with Receptor-type tyrosine-protein phosphatase F (Homo sapiens) (UniProt P10586). As to the kind of experiment: Inhibition of LAR (unknown origin) assessed as hydrolysis of pNPP to pNP at 25 uM after 30 mins.
Receptor-type tyrosine-protein phosphatase F (Homo sapiens), sequence (P10586 whole entry): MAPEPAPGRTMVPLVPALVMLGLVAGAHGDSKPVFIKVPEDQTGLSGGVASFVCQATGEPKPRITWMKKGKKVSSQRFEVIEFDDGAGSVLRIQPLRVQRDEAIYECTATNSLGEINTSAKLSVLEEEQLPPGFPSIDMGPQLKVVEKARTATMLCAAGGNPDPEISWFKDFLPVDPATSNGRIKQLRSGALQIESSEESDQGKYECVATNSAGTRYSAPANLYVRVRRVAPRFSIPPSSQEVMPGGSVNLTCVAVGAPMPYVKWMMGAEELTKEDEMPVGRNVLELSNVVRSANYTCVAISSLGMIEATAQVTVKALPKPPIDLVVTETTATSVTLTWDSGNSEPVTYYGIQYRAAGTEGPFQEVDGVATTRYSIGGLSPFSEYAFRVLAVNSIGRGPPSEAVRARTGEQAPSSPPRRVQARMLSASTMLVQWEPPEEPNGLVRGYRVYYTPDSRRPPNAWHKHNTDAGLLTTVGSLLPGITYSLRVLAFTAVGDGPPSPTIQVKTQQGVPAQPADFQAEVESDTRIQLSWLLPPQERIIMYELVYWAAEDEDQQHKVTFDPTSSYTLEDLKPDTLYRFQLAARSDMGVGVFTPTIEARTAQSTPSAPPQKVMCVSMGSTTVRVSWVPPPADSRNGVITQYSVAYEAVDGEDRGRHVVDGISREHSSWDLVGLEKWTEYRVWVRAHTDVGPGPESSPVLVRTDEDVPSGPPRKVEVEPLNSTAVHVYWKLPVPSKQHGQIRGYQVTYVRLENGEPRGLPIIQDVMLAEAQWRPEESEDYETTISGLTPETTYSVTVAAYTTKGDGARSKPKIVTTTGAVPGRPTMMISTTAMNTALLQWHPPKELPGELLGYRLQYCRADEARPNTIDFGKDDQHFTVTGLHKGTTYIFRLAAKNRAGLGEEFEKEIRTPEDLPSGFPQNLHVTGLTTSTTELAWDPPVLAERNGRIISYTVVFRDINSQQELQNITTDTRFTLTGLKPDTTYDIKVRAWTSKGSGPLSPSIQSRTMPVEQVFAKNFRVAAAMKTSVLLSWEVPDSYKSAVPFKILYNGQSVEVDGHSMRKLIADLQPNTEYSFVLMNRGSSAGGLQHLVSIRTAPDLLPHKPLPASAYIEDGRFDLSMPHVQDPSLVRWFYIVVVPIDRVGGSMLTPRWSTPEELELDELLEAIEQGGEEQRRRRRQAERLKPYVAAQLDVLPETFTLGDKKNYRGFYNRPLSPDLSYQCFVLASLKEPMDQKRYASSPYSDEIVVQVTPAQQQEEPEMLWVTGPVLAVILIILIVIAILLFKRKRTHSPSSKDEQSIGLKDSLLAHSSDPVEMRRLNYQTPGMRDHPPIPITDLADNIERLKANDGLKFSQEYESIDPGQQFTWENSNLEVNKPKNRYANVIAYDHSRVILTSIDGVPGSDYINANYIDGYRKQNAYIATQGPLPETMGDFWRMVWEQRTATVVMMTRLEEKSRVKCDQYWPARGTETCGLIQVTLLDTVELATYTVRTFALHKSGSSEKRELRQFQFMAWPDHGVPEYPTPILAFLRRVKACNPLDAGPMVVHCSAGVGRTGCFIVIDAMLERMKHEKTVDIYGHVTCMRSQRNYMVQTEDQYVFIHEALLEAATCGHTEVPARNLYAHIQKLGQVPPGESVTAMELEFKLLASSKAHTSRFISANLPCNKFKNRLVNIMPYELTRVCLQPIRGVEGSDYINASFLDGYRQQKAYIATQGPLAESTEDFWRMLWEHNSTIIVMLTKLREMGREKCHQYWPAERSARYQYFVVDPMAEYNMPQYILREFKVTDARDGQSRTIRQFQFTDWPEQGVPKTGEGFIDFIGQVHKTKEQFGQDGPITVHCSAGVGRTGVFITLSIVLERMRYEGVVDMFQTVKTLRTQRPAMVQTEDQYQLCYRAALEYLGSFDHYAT
Assay [7] addresses T6, Tyrosine-protein phosphatase non-receptor type 2 (Homo sapiens, UniProt P17706).
T6 sequence (P17706 whole entry): T3 sequence (whole entry)
The assay can be described thus: Inhibition of TCPTP (unknown origin) assessed as hydrolysis of pNPP to pNP after 30 mins.

The target in assay [8] is T4, Tyrosine-protein phosphatase non-receptor type 6. As to the kind of experiment: Inhibition of SHP1 (unknown origin) assessed as hydrolysis of pNPP to pNP after 30 mins.
The species named for assay [9] is Homo sapiens. The assay can be described thus: Selectivity ratio of IC50 for TCPTP (unknown origin) to IC50 for PTP1B (unknown origin).
For assay [10], the species on record is Homo sapiens. The assay can be described thus: Selectivity ratio of IC50 for SHP1 (unknown origin) to IC50 for PTP1B (unknown origin).
The test system of a further assay is 3T3-L1. The assay can be described thus: Inhibition of PTP1B in IRbeta expressing mouse 3T3L1 cells assessed as increase in phosphorylation level of IRbeta at 15 uM and 30 uM prior to insulin stimulation by SDS-PAGE analysis. It counts as cell-based.
A further assay concerns CHO. As to the kind of experiment: Inhibition of PTP1B in CHO cells transfected with human IRbeta expressing plasmid assessed as increase in phosphorylation level of IRbeta at 15 uM and 30 uM incubated for 4 hrs prior to insulin stimulation for 10 mins by SDS-PAGE analysis. To be noted: Cricetulus griseus. It is filed as cell-based.
Assay [11] is filed under the species Homo sapiens. The assay can be described thus: Increase in insulin-stimulated glucose uptake in differentiated human skeletal muscle cells preincubated for 4 hrs followed by insulin stimulation for 10 mins and addition of 2-NBDG measured after 30 mins by 2-NBDG-based fluorescence analysis. It is filed as functional.
In assay [12] the test system is L6. As to the kind of experiment: Increase in insulin stimulated glucose uptake in differentiated rat L6 myotube at 5 uM preincubated for 4 hrs followed by insulin stimulation for 10 mins and addition of 2-NBDG measured after 30 mins by 2-NBDG-based fluorescence analysis. It counts as functional.
Assay [13] has as its system L6. As to the kind of experiment: Increase in insulin stimulated glucose uptake in differentiated rat L6 myotube at 10 uM preincubated for 4 hrs followed by insulin stimulation for 10 mins and addition of 2-NBDG measured after 30 mins by 2-NBDG-based fluorescence analysis. It counts as functional.
Assay [14] deals with T7, Tyrosine-protein phosphatase non-receptor type 11 (Homo sapiens, UniProt Q06124).
T7 sequence (Q06124 whole entry): T5 sequence (whole entry)
As to the kind of experiment: Inhibition of SHP2 (unknown origin) assessed as hydrolysis of pNPP to pNP after 30 mins.

T4 sequence (P29350 whole entry): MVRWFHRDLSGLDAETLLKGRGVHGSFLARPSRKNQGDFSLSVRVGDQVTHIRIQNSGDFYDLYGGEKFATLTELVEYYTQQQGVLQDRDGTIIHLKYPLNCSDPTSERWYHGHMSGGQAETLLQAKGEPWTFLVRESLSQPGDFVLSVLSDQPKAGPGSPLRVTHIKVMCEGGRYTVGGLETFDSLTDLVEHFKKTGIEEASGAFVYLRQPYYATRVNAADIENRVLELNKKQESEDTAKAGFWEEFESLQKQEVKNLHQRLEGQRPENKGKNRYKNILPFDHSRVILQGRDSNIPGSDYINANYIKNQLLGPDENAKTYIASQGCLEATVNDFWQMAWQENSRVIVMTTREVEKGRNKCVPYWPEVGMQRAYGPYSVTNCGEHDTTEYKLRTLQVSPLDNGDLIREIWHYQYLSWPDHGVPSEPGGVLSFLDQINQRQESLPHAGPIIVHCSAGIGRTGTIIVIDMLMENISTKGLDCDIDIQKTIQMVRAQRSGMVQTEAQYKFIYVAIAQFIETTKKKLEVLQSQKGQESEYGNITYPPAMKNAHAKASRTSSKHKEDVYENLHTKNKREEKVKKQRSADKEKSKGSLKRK

Take `CCS(=O)(=O)N(CC(=O)OC)c1ccc(CN(c2ccc(CN(Cc3cccc(Cl)c3)S(C)(=O)=O)cc2)S(=O)(=O)Cc2ccccc2)cc1`: the inhibition in assay [1] is less than 50%.

`COC(=O)CN(c1ccc(CN(c2ccc(CN(Cc3ccccc3)S(C)(=O)=O)cc2)S(=O)(=O)c2ccc(OC)cc2)cc1)S(C)(=O)=O`: the IC50 in assay [2] amounted to 346 nM. For the same compound, the inhibition in assay [3], in assay [4], in assay [5] and in assay [6] was less than 50% in each case.

In the case of `CCCCOc1ccc(S(=O)(=O)N(Cc2ccc(N(CC(=O)OC)S(C)(=O)=O)cc2)c2ccc(NS(=O)(=O)Cc3ccccc3)cc2)cc1`, in assay [2], the IC50 amounted to 1710 nM.

As for `CCOc1ccc(S(=O)(=O)N(Cc2ccc(N(CC(=O)OC)S(C)(=O)=O)cc2)c2ccc(CN(Cc3ccccc3)S(C)(=O)=O)cc2)cc1`, the IC50 in [2] came to 222 nM; in assay [7], 1860 nM; in assay [8], 2310 nM. Also, the Ratio IC50 in the assay listed under Homo sapiens [9] was 8; in the assay listed under Homo sapiens [10] it was 10. The inhibition result with 3T3-L1 and in the assay on CHO was “Active” in each case. The Activity result in the assay listed under Homo sapiens [11] is “Dose-dependent effect”; with L6 [12], 23.3%; with L6 [13], 29.3%. For the same compound, the inhibition in assay [5] and in assay [6] was less than 50% throughout.

For `COC(=O)CN(c1ccc(CN(c2ccc(N(Cc3cccc(Cl)c3)S(C)(=O)=O)cc2)S(=O)(=O)Cc2ccccc2)cc1)S(C)(=O)=O`, in assay [1], the inhibition is less than 50%.

Regarding `COC(=O)CN(c1ccc(CN(c2ccc(CN(Cc3ccc(C)cc3)S(C)(=O)=O)cc2)S(=O)(=O)Cc2ccccc2)cc1)S(C)(=O)=O`, in assay [2], the 50% inhibitory concentration (IC50) turned out to be 20300 nM.

For the compound `COC(=O)CN(c1ccc(CN(c2ccc(CN(Cc3ccccc3)S(C)(=O)=O)cc2)S(=O)(=O)Cc2ccccc2)cc1)S(C)(=O)=O`, in assay [1], the inhibition was less than 50%.

With `COC(=O)CN(c1ccc(CN(c2ccc(CN(Cc3ccccc3)S(C)(=O)=O)cc2)S(=O)(=O)c2ccccc2)cc1)S(C)(=O)=O`, in [2], the IC50 amounted to 16100 nM.

`CCCOc1ccc(S(=O)(=O)N(Cc2ccc(N(CC(=O)OC)S(C)(=O)=O)cc2)c2ccc(CN(Cc3ccccc3)S(C)(=O)=O)cc2)cc1`: in assay [2], the IC50 is 902 nM.

On to `CCCCOc1ccc(S(=O)(=O)N(Cc2ccc(N(CC(=O)OC)S(C)(=O)=O)cc2)c2ccc(CN(Cc3ccccc3)S(C)(=O)=O)cc2)cc1`, for which the IC50 in assay [2] stood at 896 nM.

In the case of `COC(=O)CN(c1ccc(CN(c2ccc(N(Cc3ccccc3)S(C)(=O)=O)cc2)S(=O)(=O)Cc2ccccc2)cc1)S(C)(=O)=O`, the half-inhibitory concentration (IC50) in assay [2] was 492 nM; in assay [8], 9610 nM; in [14], 11600 nM. In addition, the Ratio IC50 in the assay filed under Homo sapiens [10] amounted to 20. Also, the inhibition in [3] and in assay [6] was less than 50% throughout.

Regarding `CCOc1ccc(S(=O)(=O)Nc2ccc(N(Cc3ccc(N(CC(=O)OC)S(=O)(=O)CC)cc3)S(=O)(=O)Cc3ccccc3)cc2)cc1`, the results for the IC50 in [2], in assay [7] and in assay [8] were 470 nM, 1920 nM and 11400 nM, respectively. For the same compound, the inhibition in [5] and in assay [6] was less than 50% in each case.
